Activity calls are given as the source filed them. The calls are words filed in the database; no cut-off is given here.
What was measured:
Ileum [1] = experiment: Inhibition of electrically-induced contraction of guinea pig ileum longitudinal muscle relative to levorphanol; format: functional, Cavia porcellus
Ileum [2] = experiment: Reduction in response of guinea pig ileum longitudinal muscle to exogenous acetylcholine; format: functional, tissue-based; details: Cavia porcellus
Ileum [3] = experiment: Inhibition of electrically-induced contraction of guinea pig ileum longitudinal muscle with myentric plexus in presence of naloxone; format: functional, tissue-based; details: Cavia porcellus
Ileum [4] = experiment: Stimulation of guinea pig ileum longitudinal muscle contraction relative to levorphanol; format: functional, Cavia porcellus
Ileum [5] = experiment: Inhibition of electrically-induced contraction of guinea pig ileum longitudinal muscle with myentric plexus; format: functional, tissue-based; details: Cavia porcellus
[6] = Displacement of [3H]etorphine from opioid receptor in guinea pig brain homogenate by scintillation counting analysis; format: tissue-based, Cavia porcellus
Ileum [7] = experiment: Inhibition of electrically-induced contraction of guinea pig ileum longitudinal muscle with myentric plexus at 4 X 10^-5 M; format: functional, tissue-based; details: Cavia porcellus
Ileum [8] = experiment: Inhibition of electrically-induced contraction of guinea pig ileum longitudinal muscle with myentric plexus up to 10^-5 M; format: functional, tissue-based; details: Cavia porcellus

Structure (SMILES)	fold change (FC) (Ileum [1])	inhibition (Ileum [2])	inhibition (Ileum [3])	fold change (FC) (Ileum [4])	IC50 (Ileum [5]) [nM]	inhibition (Ileum [5])	IC50 [6] [nM]	inhibition (Ileum [7])	inhibition (Ileum [8])
C[N+]1(C)CC[C@]23CCCC[C@H]2[C@H]1Cc1ccc(O)cc13.[I-]	0.032	inactive	inactive	0.068	610	Dose-dependent effect	520	–	–
C[N+]1(C)CC[C@@]23CCCC[C@@H]2[C@@H]1Cc1ccc(O)cc13	–	–	–	–	–	–	–	Active	inactive
CN1CC[C@]23CCCC[C@H]2[C@H]1Cc1ccc(O)cc13 [LEVORPHANOL]	–	–	–	–	–	–	8	–	–

From ChEMBL document CHEMBL3271977, “Stereospecific interaction of the quaternized opiate, N-methyllevorphanol, with opiate receptors” (J Med Chem, 1976)
